Reference: patent publication US6358885B1, “Substituted phenylheterocyclic herbicides” (Mississippi State University, priority 1992, dated 2002)

Key:
lambsquarters = assay: Test C preemergence/postemergence greenhouse plant response rating 0 to 100; type: in vivo, Chenopodium album; conditions: POSTEMERGENCE; for Plant response rating Lambsquarters: 62 g/ha, 0 to 100 scale
Procedure, shortened: (§1)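 Compounds in non-phytotoxic solvent applied preemergence to sandy loam one day after planting, postemergence at the 1–4 leaf stage, or to ~2.5 cm floodwater over silt loam.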

soybean = assay: as above; type: in vivo, Glycine max; conditions: POSTEMERGENCE; for Plant response rating, Soybean: 62 g/ha, 0 to 100 scale
Procedure, shortened: as §1

rape = assay: Test B preemergence/postemergence greenhouse plant response rating 0 to 10; type: in vivo, Brassica napus; conditions: 0 to 10 scale
Procedure, shortened: (§2)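 Test chemicals, dissolved in a non-phytotoxic solvent, were applied to soil at planting and, at the same time, over foliage of seedlings at the one to four leaf stage.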

barley = assay: Test C preemergence/postemergence greenhouse plant response rating 0 to 100; type: in vivo, Hordeum vulgare; conditions: POSTEMERGENCE; for Plant response rating Barley Igri: 62 g/ha, 0 to 100 scale
Procedure, shortened: as §1

crabgrass = assay: Test B preemergence/postemergence greenhouse plant response rating 0 to 10; type: in vivo, Digitaria spp.; conditions: 0 to 10 scale
Procedure, shortened: as §2

chickweed = assay: as above; type: in vivo, Stellaria media; conditions: 0 to 10 scale
Procedure, shortened: as §2

morningglory [1] = assay: Test C preemergence/postemergence greenhouse plant response rating 0 to 100; type: in vivo, Ipomoea hederacea; conditions: POSTEMERGENCE; for Plant response rating, Morningglory: 62 g/ha, 0 to 100 scale
Procedure, shortened: as §1

velvetleaf = assay: Test B preemergence/postemergence greenhouse plant response rating 0 to 10; type: in vivo, Abutilon theophrasti; conditions: 0 to 10 scale
Procedure, shortened: as §2

giant foxtail = assay: as above; type: in vivo, Setaria faberii; conditions: 0 to 10 scale
Procedure, shortened: as §2

corn = assay: as above; type: in vivo, Zea mays; conditions: 0 to 10 scale
Procedure, shortened: as §2

cheatgrass = assay: as above; type: in vivo, Bromus secalinus; conditions: 0 to 10 scale
Procedure, shortened: as §2

barnyardgrass = assay: as above; type: in vivo, Echinochloa crus-galli; conditions: 0 to 10 scale
Procedure, shortened: as §2

morningglory [2] = assay: as above; type: in vivo, Ipomoea hederacea; conditions: 0 to 10 scale
Procedure, shortened: as §2

## COCN1C(=O)COc2cc(F)c(-c3nn4c(c3Cl)CCCC4)cc21 [Compound 55]
lambsquarters
  Plant response rating Lambsquarters: 100
lambsquarters; Rate 1 g/ha
  Plant response rating (0 to 100), Lambsquarters: 100
lambsquarters; Rate 4 g/ha
  Plant response rating (0 to 100), Lambsquarters: 100
lambsquarters; Rate 16 g/ha
  Plant response rating (0 to 100), Lambsquarters: 100
soybean
  Plant response rating, Soybean: 95
soybean; Rate 1 g/ha
  Plant response rating (0 to 100), Soybean: 40
soybean; Rate 4 g/ha
  Plant response rating (0 to 100), Soybean: 70
soybean; Rate 16 g/ha
  Plant response rating (0 to 100), Soybean: 90
rape; POSTEMERGENCE, Rate 10 g/ha
  Plant response rating, Rape: 10
rape; POSTEMERGENCE, Rate 50 g/ha
  Plant response rating, Rape: 10
rape; PREEMERGENCE, Rate 50 g/ha
  Plant response rating, Rape: 6
barley
  Plant response rating Barley Igri: 50
barley; Rate 1 g/ha
  Plant response rating (0 to 100), Barley Igri: 20
barley; Rate 4 g/ha
  Plant response rating (0 to 100), Barley Igri: 30
barley; Rate 16 g/ha
  Plant response rating (0 to 100), Barley Igri: 40
crabgrass; POSTEMERGENCE, Rate 10 g/ha
  Plant response rating, Crabgrass: 2
crabgrass; POSTEMERGENCE, Rate 50 g/ha
  Plant response rating, Crabgrass: 3
crabgrass; PREEMERGENCE, Rate 10 g/ha
  Plant response rating, Crabgrass: 0
crabgrass; PREEMERGENCE, Rate 50 g/ha
  Plant response rating, Crabgrass: 6
chickweed; POSTEMERGENCE, Rate 10 g/ha
  Plant response rating, Chickweed: 9
chickweed; POSTEMERGENCE, Rate 50 g/ha
  Plant response rating, Chickweed: 10
chickweed; PREEMERGENCE, Rate 10 g/ha
  Plant response rating, Chickweed: 9
chickweed; PREEMERGENCE, Rate 50 g/ha
  Plant response rating, Chickweed: 10
Morningglory [1]
  Plant response rating, Morningglory: 100
Morningglory [1]; Rate 1 g/ha
  Plant response rating (0 to 100), Morningglory: 80
Morningglory [1]; Rate 4 g/ha
  Plant response rating (0 to 100), Morningglory: 100
Morningglory [1]; Rate 16 g/ha
  Plant response rating (0 to 100), Morningglory: 100
velvetleaf; POSTEMERGENCE, Rate 10 g/ha
  Plant response rating, Velvetleaf: 10
velvetleaf; POSTEMERGENCE, Rate 50 g/ha
  Plant response rating, Velvetleaf: 9
velvetleaf; PREEMERGENCE, Rate 50 g/ha
  Plant response rating, Velvetleaf: 10
Giant foxtail; POSTEMERGENCE, Rate 10 g/ha
  Plant response rating, Giant foxtail: 4
Giant foxtail; POSTEMERGENCE, Rate 50 g/ha
  Plant response rating, Giant foxtail: 6
Giant foxtail; PREEMERGENCE, Rate 10 g/ha
  Plant response rating, Giant foxtail: 2
Giant foxtail; PREEMERGENCE, Rate 50 g/ha
  Plant response rating, Giant foxtail: 8
corn; POSTEMERGENCE, Rate 10 g/ha
  Plant response rating, Corn: 3
corn; POSTEMERGENCE, Rate 50 g/ha
  Plant response rating, Corn: 5
corn; PREEMERGENCE, Rate 50 g/ha
  Plant response rating, Corn: 1
cheatgrass; POSTEMERGENCE, Rate 10 g/ha
  Plant response rating, Cheatgrass: 6
cheatgrass; POSTEMERGENCE, Rate 50 g/ha
  Plant response rating, Cheatgrass: 8
cheatgrass; PREEMERGENCE, Rate 10 g/ha
  Plant response rating, Cheatgrass: 1
cheatgrass; PREEMERGENCE, Rate 50 g/ha
  Plant response rating, Cheatgrass: 5
barnyardgrass; POSTEMERGENCE, Rate 10 g/ha
  Plant response rating, Barnyardgrass: 2
barnyardgrass; POSTEMERGENCE, Rate 50 g/ha
  Plant response rating, Barnyardgrass: 6
barnyardgrass; PREEMERGENCE, Rate 10 g/ha
  Plant response rating, Barnyardgrass: 0
barnyardgrass; PREEMERGENCE, Rate 50 g/ha
  Plant response rating, Barnyardgrass: 6
Morningglory [2]; POSTEMERGENCE, Rate 10 g/ha
  Plant response rating, Morningglory: 10
Morningglory [2]; POSTEMERGENCE, Rate 50 g/ha
  Plant response rating, Morningglory: 10
Morningglory [2]; PREEMERGENCE, Rate 50 g/ha
  Plant response rating, Morningglory: 8

## C#CCN1C(=O)COc2cc(F)c(-c3nn4c(c3Br)CCCC4)cc21 [Compound 56]
lambsquarters
  Plant response rating Lambsquarters: 100
lambsquarters; Rate 1 g/ha
  Plant response rating (0 to 100), Lambsquarters: 85
lambsquarters; Rate 4 g/ha
  Plant response rating (0 to 100), Lambsquarters: 100
lambsquarters; Rate 16 g/ha
  Plant response rating (0 to 100), Lambsquarters: 100
soybean
  Plant response rating, Soybean: 95
soybean; Rate 1 g/ha
  Plant response rating (0 to 100), Soybean: 40
soybean; Rate 4 g/ha
  Plant response rating (0 to 100), Soybean: 60
soybean; Rate 16 g/ha
  Plant response rating (0 to 100), Soybean: 90
rape; POSTEMERGENCE, Rate 10 g/ha
  Plant response rating, Rape: 10
rape; POSTEMERGENCE, Rate 50 g/ha
  Plant response rating, Rape: 10
rape; PREEMERGENCE, Rate 50 g/ha
  Plant response rating, Rape: 3
barley
  Plant response rating Barley Igri: 50
barley; Rate 1 g/ha
  Plant response rating (0 to 100), Barley Igri: 30
barley; Rate 4 g/ha
  Plant response rating (0 to 100), Barley Igri: 30
barley; Rate 16 g/ha
  Plant response rating (0 to 100), Barley Igri: 50
crabgrass; POSTEMERGENCE, Rate 10 g/ha
  Plant response rating, Crabgrass: 4
crabgrass; POSTEMERGENCE, Rate 50 g/ha
  Plant response rating, Crabgrass: 6
crabgrass; PREEMERGENCE, Rate 10 g/ha
  Plant response rating, Crabgrass: 0
crabgrass; PREEMERGENCE, Rate 50 g/ha
  Plant response rating, Crabgrass: 3
chickweed; POSTEMERGENCE, Rate 10 g/ha
  Plant response rating, Chickweed: 9
chickweed; POSTEMERGENCE, Rate 50 g/ha
  Plant response rating, Chickweed: 10
chickweed; PREEMERGENCE, Rate 10 g/ha
  Plant response rating, Chickweed: 9
chickweed; PREEMERGENCE, Rate 50 g/ha
  Plant response rating, Chickweed: 10
Morningglory [1]
  Plant response rating, Morningglory: 100
Morningglory [1]; Rate 1 g/ha
  Plant response rating (0 to 100), Morningglory: 50
Morningglory [1]; Rate 4 g/ha
  Plant response rating (0 to 100), Morningglory: 100
Morningglory [1]; Rate 16 g/ha
  Plant response rating (0 to 100), Morningglory: 100
velvetleaf; POSTEMERGENCE, Rate 10 g/ha
  Plant response rating, Velvetleaf: 9
velvetleaf; POSTEMERGENCE, Rate 50 g/ha
  Plant response rating, Velvetleaf: 9
velvetleaf; PREEMERGENCE, Rate 50 g/ha
  Plant response rating, Velvetleaf: 10
Giant foxtail; POSTEMERGENCE, Rate 10 g/ha
  Plant response rating, Giant foxtail: 4
Giant foxtail; POSTEMERGENCE, Rate 50 g/ha
  Plant response rating, Giant foxtail: 6
Giant foxtail; PREEMERGENCE, Rate 10 g/ha
  Plant response rating, Giant foxtail: 0
Giant foxtail; PREEMERGENCE, Rate 50 g/ha
  Plant response rating, Giant foxtail: 0
corn; POSTEMERGENCE, Rate 50 g/ha
  Plant response rating, Corn: 3
corn; PREEMERGENCE, Rate 50 g/ha
  Plant response rating, Corn: 0
cheatgrass; POSTEMERGENCE, Rate 10 g/ha
  Plant response rating, Cheatgrass: 5
cheatgrass; POSTEMERGENCE, Rate 50 g/ha
  Plant response rating, Cheatgrass: 6
cheatgrass; PREEMERGENCE, Rate 10 g/ha
  Plant response rating, Cheatgrass: 5
cheatgrass; PREEMERGENCE, Rate 50 g/ha
  Plant response rating, Cheatgrass: 5
barnyardgrass; POSTEMERGENCE, Rate 10 g/ha
  Plant response rating, Barnyardgrass: 3
barnyardgrass; POSTEMERGENCE, Rate 50 g/ha
  Plant response rating, Barnyardgrass: 4
barnyardgrass; PREEMERGENCE, Rate 10 g/ha
  Plant response rating, Barnyardgrass: 0
barnyardgrass; PREEMERGENCE, Rate 50 g/ha
  Plant response rating, Barnyardgrass: 0
Morningglory [2]; POSTEMERGENCE, Rate 10 g/ha
  Plant response rating, Morningglory: 10
Morningglory [2]; POSTEMERGENCE, Rate 50 g/ha
  Plant response rating, Morningglory: 9
Morningglory [2]; PREEMERGENCE, Rate 50 g/ha
  Plant response rating, Morningglory: 6
